Measurements: BigSolDB 2.1

O=C(O)/C=C\C=C/C(=O)O
solubility (mole fraction)
Settings	in acetic acid	in ethanol	in isopropanol	in water
298.15 K	0.0029	0.0117	0.0101	0.0002
303.15 K	0.0034	0.0139	0.0107	0.0004
308.15 K	0.0039	0.016	0.0124	0.0006
313.15 K	0.0044	0.0184	0.0139	0.0008
318.15 K	0.0052	0.0236	0.0156	0.0014
323.15 K	0.0057	0.0293	0.017	0.0021
328.15 K	0.0065	0.037	0.0204	0.0031
333.15 K	0.0076	0.0478	0.0244	0.005
338.15 K	0.0086	0.0595	0.0274	0.0068
343.15 K	0.01	0.0715	0.0297	0.0106
348.15 K	0.0125	0.0847	0.0342	0.0153
